Test results as given in patent publication US7557144B1, “Modulation of protein expression using carbocyclic aryl alkenoic acid derivatives” (The Johns Hopkins University, priority 2000, dated 2009).

Legend:
Type in all cases: cell-based, human
Hsp40 = Hsp40 immunoblot of IB3-1 lysates; settings: IB3-1 cells, 37° C., 2 days; butyrate 1 mM, glycerol 1 M, phenylacetate 1 mM, G418 0.2 mg/ml
Experimental: (§1) 3. Immunoblot analysis. Whole cell lysates were prepared by solubilization with 2% SDS at 95° C. Protein concentration in the lysates was determined using the Bio-Rad DC assay reagents with bovine plasma g-globulin as a standard (Bio-Rad Laboratories, Hercules, Calif.). Equal amounts of protein was resolved on 5, 7, 8, or 9% SDS-polyacrylamide gels. Proteins were transferred to nitrocellulose, and immunodetection was performed as previously described (25). Nonspecific binding was blocked by incubation of the nitrocellulose with 2% gelatin or 10% nonfat day milk. Primary antisera and secondary antibodies were applied in buffer containing 0.4% BSA overnight at 4° C. and for 1 h at room temperature, respectively. Detection of immunoreactivity was performed with the enhanced chemiluminescence reagent (ECL, Amer-sham) and fluorography. Recombinant bovine Hsc70 ([…]) was purchased from Stressgen Biotechnologies for use in constructing a standard curve of Hsc70 immunoreactivity. Immunoblots containing the bovine Hsc70 were probed with the Hsc70-specific polyclonal antiserum.
(§2) Whether 4-PBA would regulate expression of a number of other molecular chaperones in IB3-1 cells (FIG. 2) was assessed next. […] Hsp90 is required for correct folding and function of a number of cellular proteins (16). […] Hsp70 (Hsp72) expression is induced by heat shock and the presence of denatured proteins within the eukaryotic cell (16). In Escherichia coli, the Hsp70 homologue DnaK and the Hsp40 homologue DnaJ act to promote protein folding (16). Hdj2 is the member of the Hsp40 family that specifically interacts with and regulates the ATPase activity of Hsc70. Hdj2 also interacts with CFTR during CFTR translation (26).
(§3) FIGS. 2A-2E are more specifically explained as follows. […]
(§4) FIGS. 5A-C are explained in more detail as follows. […] Cellular homogenates were prepared in 2% SDS as described in METHODS, and 5 μg of total cellular protein were analyzed by immunoblot for Hsc70 using rabbit polyclonal antiserum, Hsp90, Hsp70, Hsp40 as described above under General Comments. […]

ΔF508-CFTR/Hsc70 complex = assay: Immunoprecipitation of Hsc70 and coimmunoprecipitation of CFTR from treated IB3-1 cells; settings: 2 days, butyrate 1 mM, glycerol 1 M, phenylacetate 1 mM, G418 0.2 mg/ml
Hsc70 mRNA = assay: RNase protection assay of Hsc70 mRNA in IB3-1 cells; settings: 2 days, 1 mM butyrate, 1 M glycerol
Description: 4. RNase protection. An Hsc70-specific probe for RNase protec-tion was constructed by isolation a 500-bp EcoR I fragment from American Type Culture Collection (ATCC) plasmid 77659 (ATCC, Manassas, Va.) and ligating this fragment into the EcoR I site of pSK(2) (Bluescript, Stratagene, La Jolla, Calif.). The resulting plasmid was sequenced in the Genetics Core Facility at the Johns Hopkins Hospital and found to be identical to sequences in exons 8 and 9 of the human Hsc70 sequence, with sequencing using the T3 primer and T7 primer leading to sense and antisense sequence, respectively. Hybridization probes were synthesized using a Maxiscript T7 kit (Ambion, Austin, Tex.) and [α^32 P]UTP (Amersham or DuPont NEN, Boston, Mass.) according to the Maxiscript protocol. Templates for internal control hybridizations, pTRI-18S and pTRI-cyclophilin A, were purchased from Ambion, and probes were similarly synthesized using the Maxiscript T7 kit. Probes were isolated by acid phenol-chloroform (Ambion) extraction, separated from unincorporated nucleotide by gel filtration (Sephadex G25 RNAspin column, Boehringer-Mannheim), and ethanol-acetate precipitated before resuspension in hybridization buffer. The concentration of radioactivity in the synthesized probes was determined by liquid scintillation.
RNase protection experiments were performed using the Direct Protect RNase protection assay kit (Ambion) according to the manufacturer's protocol. IB3-1 cell lysates were pre-pared in Direct Protect lysis buffer according to the manufacturer's protocol after incubation under the appropriate conditions for 48 h. Probe (50-70 and 5-10 thousands of counts/min for Hsc70 and control, respectively) and cellular RNA were hybridized overnight at 37° C. and digested with RNase cocktail. Protected fragments were resolved by electrophoresis on 5% acrylamide-8 M urea gels and detected by fluorography. Hsc70 mRNA concentration is expressed relative to control (18S or cyclophilin A) hybridization by densitometry (see Densitometric analysis). Results for hybridization of Hsc70 mRNA relative to the two control species were similar and were therefore grouped for data analysis.
FIGS. 3A-B are explained in more detailed as follows. Dose-dependent downregulation of Hsc70 mRNA expression by 4-PBA. A: IB3-1 cells were treated as for FIGS. 1 and 2. Hsc70 mRNA and 18S rRNA (as an internal reference) were measured by Direct Protect RNase protection as described under General Comments. […] P values (shown above respective error bars) were determined by 1-way ANOVA in comparison with control.
FIG. 6 is explained in more detail as follows. […] P values (shown above respective error bars) were determined by 1-way ANOVA in comparison with control.

Hsp70 = Hsp70 immunoblot of IB3-1 lysates; settings: IB3-1 cells, 37° C., 2 days; butyrate 1 mM, glycerol 1 M, phenylacetate 1 mM, G418 0.2 mg/ml
Experimental: as §1, §2
FIGS. 2A-2E are more specifically explained as follows. […] IB3-1 cells were treated as described for FIG. 1. Immunoblotting with 5 μg of IB3-1 SDS lysate protein was performed as described in the foregoing General Comments.
FIGS. 5A-C are explained in more detail as follows. […] A: IB3-1 cells were incubated at 37° C. for 2 days under indicated conditions. Cellular homogenates were prepared in 2% SDS as described in METHODS, and 5 μg of total cellular protein were analyzed by immunoblot for Hsc70 using rabbit polyclonal antiserum, Hsp90, Hsp70, Hsp40 as described above under General Comments. Con, control. B and C: densitometric analysis of Hsc70 expression (B) and Hsp90, Hsp70, and Hsp40 expression (C) was performed as described for FIG. 1. B: means 6 SE of density in 4 independent experiments.

Hsc70 [1] = assay: Hsc70 immunoblot of IB3-1 whole cell lysates; settings: IB3-1 cells, 37° C., 2 days; butyrate 1 mM, glycerol 1 M, phenylacetate 1 mM, G418 0.2 mg/ml
Experimental: as §1

Hsp90 = Hsp90 immunoblot of IB3-1 lysates; settings: IB3-1 cells, 37° C., 2 days; butyrate 1 mM, glycerol 1 M, phenylacetate 1 mM, G418 0.2 mg/ml
Experimental: as §1, §2, §3, §4

ΔF508-CFTR [2] = assay: CFTR immunoprecipitation and phosphorylation in IB3-1 cells (bands B and C)
Experimental: CFTR was immunoprecipitated and phosphorylated as described in the Methods. […] Band B CFTR is barely visible consistent with low level ΔF508 expression. The positive control condition, untreated cells grown at 28° C., is in lane 7. Band C has been induced and Band B is relatively depleted consistent with an effect of low temperature on protein trafficking. […] This is consistent with an effect on protein production and on protein trafficking.
Shown in FIGS. 9A and 9B are independent experiments performed as described above. Now the control cells are analyzed in lane 5. Lanes 1-4 show decreasing concentrations of the test compound.
CFTR was detected by immunoprecipitation and phosphorylation. Control cells at 0 and 32 hrs have barely visible CFTR bands B and C. Exposure to low temperature induces band C. 1 mM 4-phenyl-Δ3-transbutenoic acid begins to induce band C and 4 hr and appears maximal by 16 hrs.

Hsc70 [3] = assay: Hsc70 immunoblot in primary CF bronchial epithelial cells
Experimental: Shown in FIG. 11 is an experiment in which cells were exposed to control or test conditions or study drug for 48 hrs and then analyzed by immunoblotting for Hsc70, a 70 kD heat shock chaperone protein. […] Hsc70 is not as dramatically down regulated by growth at 27° C.
Shown in FIG. 12 is an experiment performed along lines as shown in FIG. 10A in the same primary cell line. Hsc70 under control conditions is strongly visible in lane 6. Study drug at 1 μM or higher, and low temperature, are associated with more than 50% reduction in Hsc70.

ΔF508-CFTR [4] = assay: CFTR bands B and C in primary cystic fibrosis bronchial epithelial cells; settings: primary CF bronchial epithelial cells, 48 hr
Experimental: Shown in FIGS. 10A and 10B are results of CF bronchial epithelial cells were harvested from the discarded lungs of a CF patient who underwent therapeutic lung transplant. The genotype is homozygous ΔF508. The methods are as described above. Control cells grown in standard conditions for 0 or 48 hrs are in lanes 6 and 7. Bands B and C are barely detectable. […] The test compound in doses from 1 μM to 1 mM for 48 hr is shown in decreasing order in lanes 2-5.

[5] = IB3-1 cells, 1 μM to 100 μM, 48 hr (FIG. 8)

Compound	Hsp40 immunoreactivity (Hsp40)	amount of immunoreactive CFTR coprecipitated with Hsc70 (ΔF508-CFTR/Hsc70 complex)	reduction in steady-state Hsc70 mRNA levels (Hsc70 mRNA)	Hsp70 immunoreactivity (Hsp70)	Hsc70 immunoreactivity (Hsc70 [1])	Hsp90 immunoreactivity (Hsp90)	other results
OCC(O)CO [glycerol]	not change	decreases	~50%	not change	reduction	not change	–
CCCC(=O)O [butyrate, butyric acid]	–	–	~50%	–	–	–	–
O=C(O)CC=Cc1ccccc1 [4-phenyl-Δ3-transbutenoic acid]	–	–	–	–	–	–	Band B and total CFTR (ΔF508-CFTR [2]; [5]): induction; induction of Band C CFTR (ΔF508-CFTR [2]; [5]): dose-dependent induction of Band C; time at which induction of band C begins (ΔF508-CFTR [2]; IB3-1 cells, 1 mM): 4 h; time by which induction of band C appears maximal (ΔF508-CFTR [2]; IB3-1 cells, 1 mM): ≤ 16 h; induction of CFTR bands B and C (ΔF508-CFTR [2]; IB3-1 cells, independent experiments (FIGS. 9A and 9B)): dose-dependent induction of bands B and C; effectiveness compared with 4-PBA (ΔF508-CFTR [2]; data of Examples 4-12): much more effective at lower concentrations; reduction in Hsc70 (Hsc70 [3]; 1 μM or higher (FIG. 12)): more than 50%; reduction in Hsc70 (Hsc70 [3]; 100 μM and 1 mM, 48 hrs, semi-quantitative blot (FIG. 11)): ≥ 50%; concentration giving maximum induction of bands B and C (ΔF508-CFTR [4]; doses 1 μM to 1 mM): 1 mM; induction of CFTR bands B and C (ΔF508-CFTR [4]; homozygous ΔF508, 1 μM): dramatic induction of bands B and C
O=C(O)Cc1ccccc1 [Phenylacetate, phenylacetic acid]	not affected	little effect	–	not affected	little effect	little effect	–
